Laboratory results as given in patent US10709724B2, “Methods of treating mitochondrial dysfunction” (Ecole Polytechnique Federale de Lausanne (EPFL), priority 2011, dated 2020).

Tests used:
SIRT1 = SIRT1 activity (FOXO1 acetylation, target genes) in NR-treated HEK293T cells; type: cell-based, human
Protocol: mRNA and mtDNA Analysis. Total RNA was prepared using TRIzol (Invitrogen) according to the manufacturer's instructions. RNA was treated with DNase, and 2 μg of RNA was used for reverse transcription (RT). cDNA was purified on QIAquick PCR cleanup columns (Qiagen, Valencia, Calif., USA). 50× diluted cDNA was used for RT-quantitative PCR (RT-VCR) VCR) reactions (Bai et al., 2007). The RT-qPCR reactions were performed using the Light-Cycler system (Roche Applied Science) and a qPCR Supermix (Qiagen) with the primers for mice summarized in Table 1 and 4, and with the primers for worms summarized on Table 7. mtDNA quantification was performed as described (Lagouge et al., 2006) with the primers indicated in Table 2 and 5.
(§1) Immunoprecipitation, SDS-PAGE, Western Blotting. Cells were lysed in lysis buffer (50 mM Tris, […], EDTA 1 mM, NP40 1%, nicotinamide 5 mM, Na-butyrate 1 in M, protease inhibitors pH7.4). Proteins were separated by SDS-PAGE and transferred onto nitrocellulose membranes. The origin of the primary and secondary antibodies used can be found as supplemental experimental procedures. Reactions were developed by enhanced chemiluminescence (Amersham, Little Chalfont, UK), PGC-1α, FOXO1 and Ndufa9 acetylation levels were analyzed by immunoprecipitation from cellular or nuclear lysates of tissues with anti-PGC-1α (Millipore), anti-FOXO1 (Cell Signaling, Danvers, Mass., USA) and anti-Ndufa9 (Abcam) antibody followed by Western blot using an acetyl-lysine antibody (Cell Signaling) that was normalized to total PGC-1a/FOXO1/Ndufa9 levels (Lagouge et al., 2006; Rodgers et al., 2005). In HEK293T cells HA-tagged PGC-1α was overexpressed and was immunoprecipitated using an anti-HA. In C2C12 myotubes, FLAG-HA tagged PGC-1α was introduced through adenoviral delivery 2 days before treatments, then IP was performed using anti-FLAG antibody and samples were processed as described. All blots were quantified by densitometry using ImageJ software. Poly(ADP-Ribose) detection was performed as previously described with slight modifications (Bai et al., PARP-1 inhibition increases mitochondrial metabolism through SIRT1 activation. Cell Metab 13, 461-468. (2011)) Briefly, PAR was detected by using a monoclonal anti-PAR antibody (Alexis, Lausanne Switzerland) by Western blotting of total protein lysates, using either […] of total worm protein lysates, […] of liver protein lysate or 200 g of muscle total protein extracts. PGC-1 acetylation was determined using PGC-1 immunoprecipitates from 2 mg of protein extracts, as described in Canto et al. (Canto et al., AMPK regulates energy expenditure by modulating NAD+ metabolism and SIRT1 activity. Nature 458, 1056 (2009)).

SIRT3 = SIRT3 activity (Ndufa9, SOD2 acetylation) in NR-treated HEK293T cells; type: cell-based, human; details: 0.5 mM, 24 hrs
Protocol: as §1, with “(2009)). […]” for “(2009)).”

For `NC(=O)c1ccc[n+]([C@@H]2O[C@H](CO)[C@@H](O)[C@H]2O)c1` [NR, nicotinamide riboside], the “expression of FOXO1 target genes (Gadd45, Catalase, Sod1, Sod2)” value (SIRT1) was “higher expression of target genes”, the Sod2 expression (SIRT1; 0.5 mM, 24 hrs) was “higher expression of a FOXO1 target gene, Sod2” and the “Ucp2 mRNA levels” value (SIRT1; 0.5 mM, 24 hrs) was “decreased Ucp2 mRNA levels”. For the same compound, the “Ucp2 expression with Sirt1 knock-down” value (SIRT1; 0.5 mM, 24 hrs, SIRT1 siRNAs) was “knocking down Sirt1 prevented the action of NR on Ucp2 expression”, the “intracellular NAD+ content with SIRT1 knock-down” value (SIRT1; 0.5 mM, 24 hrs, SIRT1 siRNAs) was “did not compromise the ability of NR to increase intracellular NAD^+ content” and the “Sod2 expression with Foxo1 or Sirt1 knockdown” value (SIRT1; 0.5 mM, 24 hrs, siRNAs) was “prevented by the knockdown of either Foxo1 or Sirt1”. For the same compound, the SIRT1 protein levels (SIRT1; 24 hrs) was “lack of changes in SIRT1 protein levels”, the “acetylation of FOXO1” value (SIRT1; 24 hrs, SIRT1-dependent) was “dose-dependently decreased the acetylation of FOXO1” and the SOD2 activity (SIRT3) was “enhanced SOD2 activity”. The “acetylation status of Ndufa9” value (SIRT3) was “reduced the acetylation status” and the “acetylation status of SOD2” value (SIRT3) was “reduced the acetylation status”.
